The values below come from PubChem BioAssay (NCI).

Some test systems named below: MCF7 breast; EKVX NSCLC; NCI-H522 lung; IGROV1 ovarian; SNB-19 CNS; HT29 colon; TK-10 renal; UO-31 renal; SK-MEL-5 melanoma; ACHN renal.
Test in all cases: growth of human tumour cells (NCI), 48 h

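Results reflect a 48-hour exposure of cells in 96-well plates to compound at five concentrations. GI50 is the concentration that inhibits growth by half. TGI denotes the concentration required for complete inhibition of growth.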

As to `Cn1ccnc1C(=O)/C=C/c1ccc(C(=O)Nc2nc3ccccc3[nH]2)cc1`, the GI50 in the test with MCF7 breast was 0.9 µM; with EKVX NSCLC, 7.73 µM; in the test with NCI-H522 lung it was 8.54 µM; in the test on IGROV1 ovarian it was 5.67 µM; in the test with SNB-19 CNS, 9.75 µM; in the test on HT29 colon it was 1.01 µM. The GI50 in the test with TK-10 renal was 13.3 µM; in the test on UO-31 renal, 2.07 µM; with SK-MEL-5 melanoma, 18.4 µM; in the test with ACHN renal, 11 µM. Moreover, the TGI with MCF7 breast, with EKVX NSCLC, in the test on NCI-H522 lung, in the test with IGROV1 ovarian, in the test with SNB-19 CNS and in the test with HT29 colon was greater than 25 µM in each case. For the same molecule, the TGI with TK-10 renal, in the test with UO-31 renal, in the test on SK-MEL-5 melanoma and in the test with ACHN renal was greater than 25 µM in each case.
Consider `COc1cc(C2C(C#N)=C(N)OC3=C2C(=O)c2ccccc2C3=O)cc(OC)c1OC` (stereo not given), for which the GI50 is 0.422 µM with MCF7 breast; 12.6 µM in the test on EKVX NSCLC; 0.26 µM in the test on NCI-H522 lung; 2.24 µM in the test on IGROV1 ovarian; 11.2 µM in the test with SNB-19 CNS; 3.45 µM with HT29 colon. The GI50 was 10 µM in the test with TK-10 renal, 2.79 µM with UO-31 renal, 0.439 µM with SK-MEL-5 melanoma and 0.571 µM with ACHN renal. The TGI in the test with MCF7 breast is 16.1 µM; with EKVX NSCLC, 34 µM; in the test on NCI-H522 lung, 16.8 µM; with IGROV1 ovarian, 19.2 µM; in the test with SNB-19 CNS, greater than 100 µM; with HT29 colon it was 41.3 µM. Also, the TGI with TK-10 renal is greater than 100 µM; in the test with UO-31 renal, 21.3 µM; with SK-MEL-5 melanoma, 1.81 µM; with ACHN renal it was 16.6 µM.
With `O=C(NNS(=O)(=O)c1cc(C(F)(F)F)cc(C(F)(F)F)c1)c1cnn(-c2ccc(Cl)cc2)c1C(F)(F)F`, the GI50 in the test with MCF7 breast was 21.5 µM; in the test with EKVX NSCLC, 16 µM; with NCI-H522 lung, 18.8 µM; in the test on IGROV1 ovarian, 17.4 µM; with SNB-19 CNS, 20.2 µM; in the test with HT29 colon, 31.7 µM. Moreover, the GI50 with TK-10 renal was 24.3 µM; in the test on UO-31 renal, 15.8 µM; in the test with SK-MEL-5 melanoma it was 14.3 µM; with ACHN renal it was 21.6 µM. Moreover, the TGI is 58.9 µM in the test with MCF7 breast; 43.2 µM in the test on EKVX NSCLC; 43.1 µM in the test on NCI-H522 lung; 38.5 µM in the test with IGROV1 ovarian; 49.7 µM in the test on SNB-19 CNS; greater than 100 µM in the test on HT29 colon. In addition, the TGI worked out at 54.7 µM with TK-10 renal, 31.7 µM with UO-31 renal, 29.6 µM with SK-MEL-5 melanoma and 51.2 µM in the test with ACHN renal.
Regarding `Oc1ccccc1-n1c(-c2ccccc2)ccc1-c1ccccc1`, the GI50 is 5.08 µM with MCF7 breast; 2.64 µM in the test with EKVX NSCLC; 2.74 µM in the test on NCI-H522 lung; 4.1 µM in the test with IGROV1 ovarian; 12.7 µM in the test with SNB-19 CNS; 2.22 µM with HT29 colon. For the same molecule, the GI50 in the test with TK-10 renal is 11.1 µM; in the test on UO-31 renal it was 2.17 µM; with SK-MEL-5 melanoma, 3.05 µM; in the test with ACHN renal it was 9.13 µM. Also, the TGI stood at 16.5 µM in the test with MCF7 breast; 25.3 µM with EKVX NSCLC; 12.8 µM in the test with NCI-H522 lung; 19.4 µM in the test with IGROV1 ovarian; 34.3 µM in the test on SNB-19 CNS; 11 µM in the test with HT29 colon. Further, the TGI with TK-10 renal is 24.1 µM; in the test with UO-31 renal it was 10.6 µM; in the test with SK-MEL-5 melanoma, greater than 100 µM; in the test with ACHN renal, 21.2 µM.
As to `NC(CSC(c1ccccc1)(c1ccccc1)c1ccc2ccccc2c1)C(=O)O` (stereo not given), the GI50 with MCF7 breast was 0.0321 µM; with EKVX NSCLC, 0.136 µM; with NCI-H522 lung, 0.0392 µM; with IGROV1 ovarian it was 0.124 µM; in the test on SNB-19 CNS, 0.066 µM; in the test with HT29 colon it was 0.2 µM. In addition, the GI50 was 0.524 µM in the test with TK-10 renal, 3.1 µM in the test on UO-31 renal, 0.0438 µM with SK-MEL-5 melanoma and 0.911 µM in the test with ACHN renal. Moreover, the TGI was 21.9 µM with MCF7 breast; 26.3 µM in the test on EKVX NSCLC; 1.49 µM with NCI-H522 lung; 21.6 µM in the test with IGROV1 ovarian; 17.3 µM in the test with SNB-19 CNS; greater than 100 µM in the test on HT29 colon. Further, the TGI with TK-10 renal is 23.6 µM; in the test with UO-31 renal it was 24.3 µM; with SK-MEL-5 melanoma, 11.5 µM; with ACHN renal, 30.8 µM.
Take `N#Cc1nc(-c2ccccc2)oc1S(=O)(=O)N1CCOCC1`: the GI50 is 2.74 µM in the test with MCF7 breast; 4.4 µM in the test on EKVX NSCLC; 0.702 µM in the test with NCI-H522 lung; 8 µM in the test on IGROV1 ovarian; 28 µM with SNB-19 CNS; 4.82 µM in the test with HT29 colon. In addition, the GI50 is 6.25 µM in the test with TK-10 renal, 1.51 µM in the test with UO-31 renal, 5.23 µM with SK-MEL-5 melanoma and 1.76 µM in the test on ACHN renal. Besides, the TGI in the test with MCF7 breast is 13.1 µM; in the test on EKVX NSCLC, 24.9 µM; with NCI-H522 lung it was 3 µM; with IGROV1 ovarian, 23.2 µM; in the test on SNB-19 CNS, greater than 100 µM; with HT29 colon it was 25.4 µM. Further, the TGI with TK-10 renal was 19.2 µM; in the test with UO-31 renal, 2.89 µM; in the test on SK-MEL-5 melanoma it was 17.3 µM; in the test with ACHN renal it was 3.15 µM.
In the case of `C#Cc1ccc(NC(=O)c2ccc(/C=C/C(=O)c3nccn3C)cc2)cc1`, the GI50 in the test on MCF7 breast is 0.3 µM; in the test with EKVX NSCLC, 0.565 µM; with NCI-H522 lung it was 0.518 µM; with IGROV1 ovarian, 0.407 µM; with SNB-19 CNS, 0.512 µM; in the test on HT29 colon it was 0.54 µM. Besides, the GI50 is 0.905 µM in the test with TK-10 renal, 0.346 µM in the test on UO-31 renal, 0.49 µM with SK-MEL-5 melanoma and 0.445 µM with ACHN renal. For the same molecule, the TGI amounted to 1.09 µM with MCF7 breast; 1.45 µM in the test on EKVX NSCLC; 1.37 µM in the test with NCI-H522 lung; 0.884 µM in the test on IGROV1 ovarian; 1.35 µM in the test on SNB-19 CNS; 1.32 µM in the test with HT29 colon. In addition, the TGI in the test on TK-10 renal worked out at 4.66 µM; in the test on UO-31 renal, 0.677 µM; in the test with SK-MEL-5 melanoma, 1.01 µM; with ACHN renal it was 0.839 µM.
